US20190201494A1, “COMPOSITIONS AND METHODS FOR TREATING NICOTINE WITHDRAWAL” (STC UNM, priority 2016, published 2019)

System: overnight abstinent smokers
Assay: Positive and Negative Affect Schedule (PANAS) mood ratings (Example 1)
Assay type: in vivo, human
Excerpt: Intranasal spray administration of insulin or placebo occurred at 12:30 PM. The purpose of the spacing time between morning check-in and nasal spray administration was stabilization of postprandial insulin levels. In a randomized fashion, the study nurse administered one spray in each nostril every three minutes for the total of six sprays of either insulin or placebo. Instructions to perform the Trier Social Stress Test were given at 13:20, and speech delivery occurred 13:30. Briefly, the Trier Social Stress Test^13 is a standardized laboratory stressor consisting of a free speech and a mental arithmetic task in front of an audience. Participants were introduced to the task and instructed to prepare a 5-minute presentation in which they were to promote their candidacy for a job. The speech was delivered after a 10-minute preparation period. Thereafter, participants were introduced to the mental arithmetic task, also standing in front of the audience and a self-projecting television screen. Subjects were required to count backwards from 2023 in steps of 17 as fast and accurately as possible for five minutes; upon making a mistake, subjects were asked to stop and start again at 2023. At every post-stress timepoint (13:40, 13:50, 14:00, 14:10, and 14:40), study nurses checked POC glucose to ensure euglycemia. After the last time point at 14:40, subjects ate a snack, had their glucose level checked, received another nares exam, and were discharged from the clinic at 16:00.
Subjective measures included the Questionnaire on Smoking Urges (QSU) Brief Form and Positive and Negative Affect Schedule (PANAS). Urges to smoke were rated using the 10-item QSU Brief Form^14 that consists of 10-questions. The answers are scored from 1 (strongly disagree) to 7 (strongly agree). These questions are the basis for the two factor derived subscales. Factor 1 subscale reflects a strong desire and intention to smoke with smoking perceived as rewarding. Factor 2 subscale reflects an anticipation of relief from negative affect with an urgent desire to smoke. Study data analysis included evaluations of both factors. The PANAS (Watson et al., 1988. J Pers Soc Psychol 54(6):1063-1070) consists of 10 negative and 10 positive mood terms rated on five-point Likert-type response scales from 1 (very slightly or not at all) to 5 (extremely). Positive and negative scale scores each range between 10 and 50. The PANAS was chosen as a composite measure of self-reported positive and negative affect. Subjective measures were taken at 08:30, 12:20, 13:00, 13:40, 13:50, 14:00, 14:10 and 14:40.
Random coefficient models were constructed for analyzing subjective (i.e., craving and mood), blood (insulin, glucose, C-peptide and nonesterified fatty acids) and cardiovascular (blood pressure) measures. For every model, an evaluation of non-linear term was performed, and, if significance was detected, that polynomial term for time was included in the model. Treatment, time and treatment by time interaction were included as fixed effects. Time nested within subjects was included as a random effect. If an interaction was detected, post hoc comparisons were performed comparing treatment groups at each time point. Cortisol was log-transformed for the purpose of normalizing distribution. The summary measure for cortisol analysis was peak change from baseline. Baseline cortisol was the 8:30 AM measurement, and time period for determination of peak was between 13:40 and 14:40. This time period reflects any cortisol change that resulted from the psychosocial stress procedure, with speech occurring from 13:30 to 13:35 and math from 13:35 to 13:40. Group differences were compared using analysis of variance (ANOVA). Significance values are reported as detected; no adjustments were made for multiple comparisons.

intranasal insulin: bulk human Regular insulin (U100 Novolin R, Novo Nordisk US), 100 IU/ml, six nasal sprays delivering 60 IU
Negative mood ratings (PANAS), effect of treatment (60 IU vs placebo): the effect of treatment was not significant | Positive mood ratings (PANAS), effect of treatment (60 IU vs placebo): no effect | Negative mood ratings (PANAS), effect of treatment (60 IU vs placebo, listed as Intranasal insulin): no effect | Negative mood (PANAS), treatment×time interaction, b (SE(b)=0.01, z=0.10, p=0.92, not significant): 0.001 | Positive mood (PANAS), treatment×time interaction, b (SE(b)=0.017, z=−0.97, p=0.33, not significant): −0.01 | Negative mood (PANAS), effect of treatment, b (SE(b)=1.30, z=1.07, p=0.28, not significant): 1.38 | Positive mood (PANAS), treatment, b (SE(b)=2.47, z=−0.19, p=0.84, not significant): −0.47
